Assay results taken from patent US11117915B2, “Antibacterial aminoglycoside analogs” (Cipla USA, Inc., priority 2007, dated 2021).
≈ marks a conversion by molar mass, not a printed value. Read-outs that look alike come from different tables or passages of the source.

Tests used:
E. coli ATCC 25922 = experiment: MIC assay, CLSI broth microdilution, E. coli ATCC 25922 (AECO001); format: cell-based; details: for MIC: Escherichia coli, read-out: MIC AECO001; for MIC AECO001: Table 3, E. coli ATCC25922
Method: (§1) Minimum inhibitory concentrations (MIC) were determined by reference Clinical and Laboratory Standards Institute (CLSI) broth microdilution methods per M7-A7 [2006]. Quality control ranges utilizing E. coli ATCC 25922, P. aeruginosa ATCC 27853 and S. aureus ATCC 29213, and interpretive criteria for comparator agents were as published in CLSI M100-S17 [2007]. Briefly, serial two-fold dilutions of the test compounds were prepared at 2× concentration in Mueller Hinton Broth. The compound dilutions were mixed in 96-well assay plates in a 1:1 ratio with bacterial inoculum. The inoculum was prepared by suspension of a colony from an agar plate that was prepared the previous day. Bacteria were suspended in sterile saline and added to each assay plate to obtain a final concentration of 5×10^5 CFU/mL. The plates were incubated at 35° C. for 20 hours in ambient air.
These MIC assays were conducted following the same protocol as set forth in Example 110. As shown, substituted sisomicin derivatives with groups other than methyl at the 6′-position have improved activity against strains expressing the AAC6′-modifying enzymes.

P. aeruginosa ATCC 27853 = experiment: MIC assay, CLSI broth microdilution, P. aeruginosa ATCC 27853 (APAE001); format: cell-based; details: Pseudomonas aeruginosa, read-out: MIC APAE001
Method: as §1

[1] = AECO001 is ATCC25922, 35° C., 20 hours
[2] = APAE001 is ATCC27853, 35° C., 20 hours

Compound | MIC (E. coli ATCC 25922; ATCC25922, 20 h) | MIC (P. aeruginosa ATCC 27853; ATCC27853, 20 h) | MIC (E. coli ATCC 25922; [1]) | MIC AECO001 (E. coli ATCC 25922) | MIC (P. aeruginosa ATCC 27853; [2])
CN[C@@H]1[C@@H](O)[C@@H](O[C@@H]2[C@@H](O)[C@H](O[C@H]3OC(CNCCO)=CC[C@H]3N)[C@@H](N)C[C@H]2NC(=O)[C@H](O)CCN)OC[C@]1(C)O [Example 2, 6′-(2-Hydroxy-ethyl)-1-(4-amino-2(R)-hydroxy-butyryl)-sisomicin] | 1 to 16 µg/mL (≈ 1.69 to 27 µM) | 1 to 16 µg/mL (≈ 1.69 to 27 µM) | – | – | –
CN[C@@H]1[C@@H](O)[C@@H](O[C@@H]2[C@@H](O)[C@H](O[C@H]3OC(CNCC(O)CO)=CC[C@H]3N)[C@@H](N)C[C@H]2NC(=O)[C@H](O)CCN)OC[C@]1(C)O (stereo partly drawn) [Example 3, 6′-(2-Hydroxy-propanol)-1-(4-amino-2(R)-hydroxy-butyryl)-sisomicin] | 1 to 16 µg/mL (≈ 1.61 to 25.7 µM) | > 16 µg/mL | – | – | –
CN[C@@H]1[C@@H](O)[C@@H](O[C@@H]2[C@@H](O)[C@H](O[C@H]3OC(CNCC4CCNCC4)=CC[C@H]3N)[C@@H](N)C[C@H]2NC(=O)[C@H](O)CCN)OC[C@]1(C)O [Example 4, 6′-(Methyl-piperidin-4-yl)-1-(4-amino-2(R)-hydroxy-butyryl)-sisomicin] | 1 to 16 µg/mL (≈ 1.55 to 24.8 µM) | 1 to 16 µg/mL (≈ 1.55 to 24.8 µM) | – | – | –
CN[C@@H]1[C@@H](O)[C@@H](O[C@@H]2[C@@H](O)[C@H](O[C@H]3OC(CNCC4CC4)=CC[C@H]3N)[C@@H](N)C[C@H]2NC(=O)[C@H](O)CCN)OC[C@]1(C)O [Example 5, 6′-(Methyl-cyclopropyl)-1-(4-amino-2(R)-hydroxy-butyryl)-sisomicin] | < 1 µg/mL | 1 to 16 µg/mL (≈ 1.66 to 26.5 µM) | – | – | –
CN[C@@H]1[C@@H](O)[C@@H](O[C@@H]2[C@@H](O)[C@H](O[C@H]3OC(CNCCCN)=CC[C@H]3N)[C@@H](N)C[C@H]2NC(=O)[C@H](O)CCN)OC[C@]1(C)O [Example 6, 6′-(3-Amino-propyl)-1-(4-amino-2(R)-hydroxy-butyryl)-sisomicin] | 1 to 16 µg/mL (≈ 1.65 to 26.4 µM) | 1 to 16 µg/mL (≈ 1.65 to 26.4 µM) | – | – | –
CN[C@@H]1[C@@H](O)[C@@H](O[C@@H]2[C@@H](O)[C@H](O[C@H]3OC(CNCC4CC4)=CC[C@H]3N)[C@@H](N)C[C@H]2NC(=O)[C@H](O)CN)OC[C@]1(C)O [Example 7, 6′-Methyl-cyclopropyl-1-(3-amino-2(R)-hydroxy-propionyl)-sisomicin] | < 1 µg/mL | 1 to 16 µg/mL (≈ 1.7 to 27.2 µM) | – | – | –
CN[C@@H]1[C@@H](O)[C@@H](O[C@@H]2[C@@H](O)[C@H](O[C@H]3OC(CNCC4CCNCC4)=CC[C@H]3N)[C@@H](N)C[C@H]2NC(=O)[C@H](O)CN)OC[C@]1(C)O [Example 8, 6′-Methyl-piperidinyl-1-(3-amino-2(R)-hydroxy-propionyl)-sisomicin] | < 1 µg/mL | 1 to 16 µg/mL (≈ 1.58 to 25.3 µM) | – | – | –
CN[C@@H]1[C@@H](O)[C@@H](O[C@@H]2[C@@H](O)[C@H](O[C@H]3OC(CNCCO)=CC[C@H]3N)[C@@H](N)C[C@H]2NC(=O)[C@H](O)CN)OC[C@]1(C)O [Example 9, 6′-(2-Hydroxy-ethyl)-1-(3-amino-2(R)-hydroxy-propionyl)-sisomicin] | 1 to 16 µg/mL (≈ 1.73 to 27.6 µM) | > 16 µg/mL | – | – | –
CN[C@@H]1[C@@H](O)[C@@H](O[C@@H]2[C@@H](O)[C@H](O[C@H]3OC(CNCC(O)CO)=CC[C@H]3N)[C@@H](N)C[C@H]2NC(=O)[C@H](O)CN)OC[C@]1(C)O (stereo partly drawn) [Example 10, 6′-(2-Hydroxy-propanol)-1-(3-amino-2(R)-hydroxy-propionyl)-sisomicin] | 1 to 16 µg/mL (≈ 1.64 to 26.3 µM) | 1 to 16 µg/mL (≈ 1.64 to 26.3 µM) | – | – | –
CN[C@@H]1[C@@H](O)[C@@H](O[C@@H]2[C@@H](O)[C@H](O[C@H]3OC(CNCCCN)=CC[C@H]3N)[C@@H](N)C[C@H]2NC(=O)[C@H](O)CN)OC[C@]1(C)O [Example 11, 6′-(3-Amino-propyl)-1-(3-amino-2(R)-hydroxy-propionyl)-sisomicin] | < 1 µg/mL | 1 to 16 µg/mL (≈ 1.69 to 27 µM) | – | – | –
CN[C@@H]1[C@@H](O)[C@@H](O[C@@H]2[C@@H](O)[C@H](O[C@H]3OC(CNCC4CCNCC4)=CC[C@H]3N)[C@@H](N)C[C@H]2NC(=O)[C@@H](O)CCN)OC[C@]1(C)O [Example 12, 6′-(Methyl-piperidin-4-yl)-1-(4-amino-2(S)-hydroxy-butyryl)-sisomicin] | – | – | 1 to 16 µg/mL (≈ 1.55 to 24.8 µM) | 1 µg/mL (≈ 1.55 µM) | 1 to 16 µg/mL (≈ 1.55 to 24.8 µM)
CN[C@@H]1[C@@H](O)[C@@H](O[C@@H]2[C@@H](O)[C@H](O[C@H]3OC(CNCC4CC4)=CC[C@H]3N)[C@@H](N)C[C@H]2NC(=O)[C@@H](O)CN)OC[C@]1(C)O [Example 13, 6′-(Methyl-cyclopropyl)-1-(3-amino-2(S)-hydroxy-propionyl)-sisomicin] | – | – | 1 to 16 µg/mL (≈ 1.7 to 27.2 µM) | 1 µg/mL (≈ 1.7 µM) | > 16 µg/mL
CN[C@@H]1[C@@H](O)[C@@H](O[C@@H]2[C@@H](O)[C@H](O[C@H]3OC(CNCC(O)CO)=CC[C@H]3N)[C@@H](N)C[C@H]2NC(=O)[C@@H](O)CN)OC[C@]1(C)O (stereo partly drawn) [Example 14, 6′-(2-Hydroxy-propanol)-1-(3-amino-2(S)-hydroxy-propionyl)-sisomicin] | 1 to 16 µg/mL (≈ 1.64 to 26.3 µM) | 1 to 16 µg/mL (≈ 1.64 to 26.3 µM) | – | – | –
CN[C@@H]1[C@@H](O)[C@@H](O[C@@H]2[C@@H](O)[C@H](O[C@H]3OC(CNCC4CC4)=CC[C@H]3N)[C@@H](N)C[C@H]2NC(=O)[C@@H](O)CCN)OC[C@]1(C)O [Example 18, 6′-(Methyl-cyclopropyl)-1-(4-amino-2(S)-hydroxy-butyryl)-sisomicin] | – | – | < 1 µg/mL | 1 µg/mL (≈ 1.66 µM) | 1 to 16 µg/mL (≈ 1.66 to 26.5 µM)
CN[C@@H]1[C@@H](O)[C@@H](O[C@@H]2[C@@H](O)[C@H](O[C@H]3OC(CNCC(O)CO)=CC[C@H]3N)[C@@H](N)C[C@H]2NC(=O)[C@@H](O)CCN)OC[C@]1(C)O (stereo partly drawn) [Example 19, 6′-(2-Hydroxy-propanol)-1-(4-amino-2(S)-hydroxy-butyryl)-sisomicin] | < 1 µg/mL | 1 to 16 µg/mL (≈ 1.61 to 25.7 µM) | – | – | –
CN[C@@H]1[C@@H](O)[C@@H](O[C@@H]2[C@@H](O)[C@H](O[C@H]3OC(CNC(=O)C(O)CN)=CC[C@H]3N)[C@@H](N)C[C@H]2NC(=O)[C@@H](O)CN)OC[C@]1(C)O (stereo partly drawn) [Example 20, 6′-(3-Amino-2-hydroxy-propionyl)-1-(3-amino-2(S)-hydroxy-propionyl)-sisomicin] | > 16 µg/mL | > 16 µg/mL | – | – | –
CN[C@@H]1[C@@H](O)[C@@H](O[C@@H]2[C@@H](O)[C@H](O[C@H]3OC(CNCC(O)C(N)=O)=CC[C@H]3N)[C@@H](N)C[C@H]2NC(=O)[C@@H](O)CN)OC[C@]1(C)O (stereo partly drawn) [Example 21, 6′-(2-Hydroxy-3-propionamide)-1-(3-amino-2(S)-hydroxy-propionyl)-sisomicin] | 1 to 16 µg/mL (≈ 1.61 to 25.7 µM) | 1 to 16 µg/mL (≈ 1.61 to 25.7 µM) | – | – | –
CN[C@@H]1[C@@H](O)[C@@H](O[C@@H]2[C@@H](O)[C@H](O[C@H]3OC(CNCC(O)CO)=CC[C@H]3N)[C@@H](N)C[C@H]2NC(=O)CO)OC[C@]1(C)O (some centres unmarked) [Example 23, 6′-(2-Hydroxy-propanol)-1-(2-hydroxy-acetyl)-sisomicin] | > 16 µg/mL | > 16 µg/mL | – | – | –
CN[C@@H]1[C@@H](O)[C@@H](O[C@@H]2[C@@H](O)[C@H](O[C@H]3OC(CNCCCN)=CC[C@H]3N)[C@@H](N)C[C@H]2NC(=O)CO)OC[C@]1(C)O [Example 24, 6′-(3-Amino-propyl)-1-(2-hydroxy-acetyl)-sisomicin] | 1 to 16 µg/mL (≈ 1.78 to 28.4 µM) | 1 to 16 µg/mL (≈ 1.78 to 28.4 µM) | – | – | –
CN[C@@H]1[C@@H](O)[C@@H](O[C@@H]2[C@@H](O)[C@H](O[C@H]3OC(CNCCO)=CC[C@H]3N)[C@@H](N)C[C@H]2NC(=O)CO)OC[C@]1(C)O [Example 25, 6′-(2-Hydroxy-ethyl)-1-(2-hydroxy-acetyl)-sisomicin] | 1 to 16 µg/mL (≈ 1.82 to 29.1 µM) | 1 to 16 µg/mL (≈ 1.82 to 29.1 µM) | – | – | –
CNCC1=CC[C@@H](N)[C@@H](O[C@H]2C(O)[C@@H](O[C@H]3OC[C@](C)(O)[C@H](NC)[C@H]3O)[C@H](N)C[C@@H]2N)O1 (some centres unmarked) [Mono-substituted Compound 1, reference compound] | – | – | – | 1 µg/mL (≈ 2.17 µM) | –
CN[C@@H]1[C@@H](O)[C@@H](O[C@@H]2C(O)[C@H](O[C@H]3OC(CNCC4CC4)=CC[C@H]3N)[C@@H](N)C[C@H]2N)OC[C@]1(C)O (some centres unmarked) [Mono-substituted Compound 2, reference compound] | – | – | – | 1 µg/mL (≈ 1.99 µM) | –
CN[C@@H]1[C@@H](O)[C@@H](O[C@@H]2C(O)[C@H](O[C@H]3OC(CNCC4CCNCC4)=CC[C@H]3N)[C@@H](N)C[C@H]2N)OC[C@]1(C)O (some centres unmarked) [Mono-substituted Compound 3, reference compound] | – | – | – | 0.5 µg/mL (≈ 0.918 µM) | –
CN[C@@H]1[C@@H](O)[C@@H](O[C@@H]2C(O)[C@H](O[C@H]3OC(CNCCCN)=CC[C@H]3N)[C@@H](N)C[C@H]2N)OC[C@]1(C)O (some centres unmarked) [Mono-substituted Compound 4, reference compound] | – | – | – | 2 µg/mL (≈ 3.96 µM) | –
CN[C@@H]1C(O)[C@@H](O[C@@H]2[C@@H](O)[C@H](OC3OC(CN)=CC[C@H]3N)[C@@H](N)C[C@H]2NC(=O)[C@@H](O)CN)OC[C@]1(C)O (some centres unmarked) [Mono-substituted Compound 5, reference compound] | – | – | – | 0.5 µg/mL (≈ 0.935 µM) | –
CN[C@@H]1C(O)[C@@H](O[C@@H]2[C@@H](O)[C@H](OC3OC(CN)=CC[C@H]3N)[C@@H](N)C[C@H]2NC(=O)[C@@H](O)CCN)OC[C@]1(C)O (some centres unmarked) [Mono-substituted Compound 6, reference compound] | – | – | – | 0.5 µg/mL (≈ 0.911 µM) | –
CN[C@@H]1C(O)[C@@H](O[C@@H]2[C@@H](O)[C@H](OC3OC(CN)=CC[C@H]3N)[C@@H](N)C[C@H]2NC(=O)C2(O)CNC2)OC[C@]1(C)O (some centres unmarked) [Mono-substituted Compound 7, reference compound] | – | – | – | 1 µg/mL (≈ 1.83 µM) | –
